Values of other authors as cited in patent US20220151922A1, “Medication for Alleviating Parkinson's Symptoms and Method of Administering” (priority 2020, published 2022).

Key:
[1] = test system: bacteria, bacterial spores, and viruses; conditions: versus chlorine bleach
[2] = test system: Pseudomonas aeruginosa biofilms

Compound: OCl [HOCl, Hypochlorous acid]
- effectiveness of killing bacteria, bacterial spores, and viruses relative to chlorine bleach [1]: 100 times
- removing Pseudomonas aeruginosa biofilms [2]: effectiveness
